In the experiment the target is T1, Membrane primary amine oxidase (Homo sapiens, UniProt Q16853).
T1 sequence (Q16853 whole entry): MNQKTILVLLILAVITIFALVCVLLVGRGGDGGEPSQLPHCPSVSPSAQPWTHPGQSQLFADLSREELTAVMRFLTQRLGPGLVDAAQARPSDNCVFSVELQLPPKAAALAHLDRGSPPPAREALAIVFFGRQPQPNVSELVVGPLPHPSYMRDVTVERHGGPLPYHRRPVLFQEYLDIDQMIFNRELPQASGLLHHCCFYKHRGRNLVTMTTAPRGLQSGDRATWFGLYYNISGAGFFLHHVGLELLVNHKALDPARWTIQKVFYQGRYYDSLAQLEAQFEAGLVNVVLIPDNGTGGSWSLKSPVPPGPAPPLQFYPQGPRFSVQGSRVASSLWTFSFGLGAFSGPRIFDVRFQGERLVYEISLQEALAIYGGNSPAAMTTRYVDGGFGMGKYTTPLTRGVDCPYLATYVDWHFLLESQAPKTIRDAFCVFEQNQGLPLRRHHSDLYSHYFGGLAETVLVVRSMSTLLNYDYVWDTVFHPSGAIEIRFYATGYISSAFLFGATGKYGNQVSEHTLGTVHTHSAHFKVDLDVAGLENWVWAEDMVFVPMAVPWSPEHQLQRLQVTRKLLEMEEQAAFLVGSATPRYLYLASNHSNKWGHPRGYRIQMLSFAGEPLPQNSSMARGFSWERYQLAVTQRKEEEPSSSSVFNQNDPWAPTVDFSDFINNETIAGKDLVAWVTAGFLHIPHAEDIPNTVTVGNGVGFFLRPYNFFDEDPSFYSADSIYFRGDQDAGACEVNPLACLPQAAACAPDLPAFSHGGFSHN
Nature of the experiment: Biological Assay. How it is done:
All primary assays were performed at RT. with purified recombinantly expressed human SSAO. […] In addition, secondary- and selectivity assays were performed using SSAO prepared from various tissues or purified rat recombinant SSAO. The enzyme activity was assayed with benzylamine as substrate by measuring either benzaldehyde production, using 14C-labeled substrate, or by utilizing the production of hydrogen peroxide in a horseradish peroxidase (HRP) coupled reaction. Briefly, test compounds were dissolved in dimethyl sulfoxide (DMSO) to a concentration of 10 mM. Dose-response measurements were assayed by either creating 1:10 serial dilutions in DMSO to produce a 7 point curve or by making 1:3 serial dilutions in DMSO to produce 11 point curves.

This is an account of results in BindingDB's records for patent US10428066 (PROXIMAGEN, LLC, 2019).

As usually defined, the IC50 is the concentration that inhibits the measured activity by half. Higher therefore signals weaker potency in that assay.

On to `Cc1cc(N)ncc1-c1cc2ccncc2n1-c1ccc(Cl)cc1` [5-[1-(4-Chlorophenyl)-1H-pyrrolo[2,3-c]pyridin-2-yl]-4-methylpyridin-2-amine; bis(trifluoroacetic acid)], for which the half-inhibitory concentration (IC50) result is “in the range around 125 nM”.
